Patent US5562922A, “Drug incorporating and release polymeric coating for bioprosthesis” (Cedars-Sinai Medical Center, priority 1995, dated 1996)
Entries after “also recorded” stand apart in the source; their conditions may differ.

Key:
intimal hyperplasia = conditions: polyvinyl alcohol based polymer beads, perivascular tissue, rats; cited from earlier work
[1] = test system: thrombosis on the catheter; conditions: released from intravascular catheters; cited from earlier work
[2] = Water solubility (in words); type: physicochemical
[3] = In vitro drug release from polyurethane-coated stents, coils or films; conditions: for initial release rate / release rate: release from polyurethane, Table 1A; for Total: total content
Procedure: Drug incorporation into polyurethane-coated articles
Nitinol stents or stainless steel coils with surface area similar to nitinol stents were coated with Tecoflex 85A™ polyurethane to a thickness of about 50 microns in accordance with the manufacture's instructions for coating metal surfaces.
The drug loading procedure is carried out as follows: The desired compound is dissolved in a solution containing 3 parts ethanol and 1 part tetrahydrofuran (100 mg/ml for rhodamine B and 50 mg/ml for fluorescein dilaurate and forskolin).
When a hydrophilic compound such as hirulog was loaded in the polyurethane,the polyurethane was first loaded with sphingosine or any charged lipophilic molecule as described above. With this modification, the polyurethane will swell in organic solutions containing up to 10% water. The desired compound was then dissolved as 50 mg/ml in ethanol/tertrahydrofuran/water in a ratio of 65/25/1-20. The water content will vary according to the solubility of the desired compound in this solvent system.
After incubation, all stents, coils, and films were dried overnight at 40° C. at reduced pressure. To evaluate the ability of a charged lipid soluble drug to facilitate uptake and release of a water soluble compound, thin films containing 20 mg of polyurethane with or without 1 mg of sphingosine were produced by pour plating and drying overnight at 40° C. under reduced pressure. The films were then incubated in a solution of fluorescein disodium, a water soluble dye. After incubation, films were dried as described above.
After a 15 minute preincubation (wash step), stents, coils, or films were incubated for 2-3 days in 2 ml. of phosphate buffered saline (pH=7.4) or 5% bovine serum albumin in PBS at 37° C. in a shaking water bath. […] At the end of incubations, the polyurethane was dissolved in tertrahydrofuran and an aliquot analyzed to determine the quantity of compound remaining in the polymer. […] Solutions containing fluorescein dilaurate required addition of 200 μl of 10M sodium hydroxide to convert the fluorescein dilaurate into its colored form (release the two 16-carbon fatty acid dilaurate chains from the water soluble fluorescein molecule). Forskolin content was determined by scintillation counting.

[4] = Uptake by polymer, elution from polymer and tissue retention compared with forskolin; conditions: compared to forskolin
[5] = Etretinate delivery to vessel wall from coated stent (similar model); conditions: rabbit
carotid artery [6] = assay: Rabbit carotid crush injury, low flow thrombosis model; type: in vivo, New Zealand white rabbits
Excerpt: To evaluate the thrombogenicity of polyurethane stent coatings, a rabbit carotid crush injury, low flow thrombosis model was developed. Briefly, New Zealand white rabbits (n=14) underwent anesthesia with ketamine and xylazine followed by surgical exposure of the right carotid and left femoral arteries. A 6 french sheath was placed in the left femoral artery and a 2.0 mm transit time flow probe (Transonics) was placed in the distal carotid artery. No anticoagulant was given. Repeated crush injury with a plastic coated clamp was performed at similar force for fifteen times over a one cm. distance usually producing a small decrement in flow rate. After 5 minutes, a bare or polyurethane coated nitinol stent was advanced to straddle the area of injury and balloon expanded. After a 15 minute equilibration period during which a 3.0 mm balloon occluder was placed proximal to the stent, the occluder was inflated to reduce flow to 4 ml/min. (40% of baseline). Continuous pressure monitoring via pressure transducer placed on line in the occluder inflation system was performed to ensure maintenance of consistent occlusion.
Continuous carotid artery flow and mean blood pressure were recorded by strip chart recorder. If the flow remained <0.5 ml/min, for 5 minutes, the artery was considered occluded and experiment terminated. […] After euthanasia, the artery was removed and cut longitudinally with a scalpel. The polyurethane coating was visually inspected for defects. Presence of white or red thrombus was also noted.

[7] = parameters: species or system New Zealand white rabbits; conditions: rabbit
Procedure: (§1) For these experiments, nitinol stents were coated with Tecoflex™, to a thickness of about 50-100 microns, and then incubated in a solution containing unlabelled and tritiated forskolin with a specific activity of 25 μCi/mg. Resulting stents contained approximately 1.5 mg. of forskolin in approximately 20 mg of 50-100 micron thick polymer matrix coating.
(§2) Instantaneous blood release rates were calculated by the following formula using the conservation of mass principle: [formula] where dM=change in mass, dT=change in time, M=mass, Q=flow, C1=upstream concentration, and C2=downstream concentration. Scintillation counts were then adjusted for measured background and efficiency. The amount of forskolin present was calculated by comparison of tissue activity to a 25 uCi/mg standard. For comparison of tissue and blood forskolin concentrations, blood levels were divided by specific gravity of rabbit blood (1.050 g/ml). Statistical analysis to assess differences between the multiple sites of the tissue samples was by one-way analysis of variances (ANOVA). If significant differences were found (p<0.05), pairwise comparisons were then performed using the t-test within ANOVA corrected for multiple comparisons (Bonferoni/Least Significant Difference tests).

carotid artery [8] = test system: carotid artery; parameters: species or system New Zealand white rabbits; conditions: rabbit, in vivo
Procedure: as §1, §2

carotid artery [9] = assay: Carotid artery flow after stent delivery; type: in vivo, New Zealand white rabbits; conditions: 10.3±4.2 ml/min before
Procedure: as §1

[10] = Film + SPH (sphingosine), n = 2, buffer not given
[11] = Film without sphingosine, n = 2, buffer not given

## heparin
Intimal hyperplasia
  intimal hyperplasia: inhibited intimal hyperplasia
[1]
  thrombosis on the catheter: sufficient to decrease thrombosis on the catheter

## CCCCCCCCCCCC(=O)Oc1ccc2c(c1)Oc1cc(OC(=O)CCCCCCCCCCC)ccc1C21OC(=O)c2ccccc21 [Fluorescein dilaurate, fluorescein dilaurate]
[2]
  water solubility: insoluble in water
[3]; Coil, 5% BSA, n = 1
  Release Rate Day 1: 3.4 µg/h
  Release Rate Day 2: 2.3 µg/h
[3]; Film, 5% BSA, n = 2
  Release Rate Day 1: 4.6 µg/h
  Release Rate Day 2: 3.7 µg/h
[3]
  initial release rate / release rate: required 5% albumin to promote release

## CCN(CC)c1ccc2c(-c3ccccc3C(=O)O)c3ccc(=[N+](CC)CC)cc-3oc2c1 [Rhodamine B]
[3]; Coil, PBS, n = 3
  Release Rate Day 1: 37.0 µg/h
  Release Rate Day 2: 5.2 µg/h
  Total: 1.5 mg
[3]
  initial release rate / release rate: highest initial release rate

## CCOC(=O)/C=C(C)/C=C/C=C(C)/C=C/c1c(C)cc(OC)c(C)c1C [Etretinate]
[4]
  elution rate from the polymer: decreased elution rate from the polymer
  tissue retention: increased tissue retention
  uptake by the polymer: increased uptake by the polymer
[5]; vessel wall
  concentration at 72 h: 185000 ng/g
[5]; vessel wall media
  concentration at 24 h: 250000 ng/g

## O=C1OC2(c3ccc(O)cc3Oc3cc(O)ccc32)c2ccccc21 [Fluorescein disodium, fluorescein disodium]
[2]
  water solubility: water soluble
[3]; [10]
  Release Rate Day 1: 16.0 µg/h
  Release Rate Day 2: 4.0 µg/h
  Release Rate Day 3: 2.0 µg/h
[3]; Film + SPH (sphingosine), n = 2
  Total: 1.1 mg
[3]; [11]
  Release Rate Day 1: 4.0 µg/h
  Release Rate Day 2: 1.8 µg/h
  Release Rate Day 3: 1.8 µg/h
[3]; Film without sphingosine, n = 2
  Total: 0.3 mg
[3]; with the addition of sphingosine (SPH) to the matrix
  total content and delivery rate: improved total content; also recorded: subsequently higher delivery rate

## C=C[C@@]1(C)CC(=O)[C@]2(O)[C@@]3(C)[C@@H](O)CCC(C)(C)[C@@H]3[C@H](O)[C@H](OC(C)=O)[C@@]2(C)O1 [Forskolin]
Carotid artery [6]; compared to uncoated and coated stents
  thrombosis of the stented segment: prevented thrombosis of the stented segment
Carotid artery [6]; forskolin impregnated into the polyurethane
  effect on TCF and TTO: remarkably increased the time to cyclic flow (TCF) and time to occlusion (TTO)
Carotid artery [6]; n = 5, p < 0.0001 compared to coated and uncoated (uncoated 16 ± 13, polymer coated 27 ± 17)
  Time to Cyclic Flow (TCF): 208 ± 71 min
Carotid artery [6]; n = 5, uncoated 19 ± 18, polymer coated 54 ± 27
  Time to Occlusion (TTO): > 240 min
Carotid artery [6]; number of forskolin impregnated stents, n = 5
  stents exhibiting cyclic carotid blood flow: one
Carotid artery [6]; uncoated: mixed red and white thrombus, coated: predominately white thrombus
  visual inspection of thrombus: red thrombus only; also recorded: Absence of platelet rich white thrombus
[7]
  in vivo release rate: 7.0 µg/min
[7]; in vivo
  calculated instantaneous release rate into the bloodstream, initial: 6900 ng/min
  calculated instantaneous release rate into the bloodstream, over four hours: 700 ng/min
  peak forskolin blood level: 140 ng/mL
[7]; in vivo, 0 min
  immediate forskolin blood level: 57 ng/mL
[7]; in vivo, 24 h
  blood level: 0.068 ± 0.018 µg/mL
Carotid artery [8]
  concentration in adventitia overlying the stent relative to blood: 360 times
  concentration in adventitia overlying the stent relative to contralateral artery: 305 times
  concentration in media overlying the stent relative to blood: 450 times
  concentration in media overlying the stent relative to contralateral artery: 385 times
  forskolin levels in vessel proximal to, overlying and distal to stent: significant levels of forskolin
  radial and longitudinal diffusion: diffusion gradient in both longitudinal and radial directions away from the stent
  washout from the vessel wall: rapid
Carotid artery [8]; 2 h
  adventitia level in washout experiment, 2 hours: 1.7 ng/mg
  media level in washout experiment, two hours: 1.2 ng FSK/mg tissue
  other adjacent tissues level in washout experiment, two hours: < 0.6 ng/mg
Carotid artery [8]; 24 h
  adventitia level: 4.1±1.8 ng FSK/mg tissue
  adventitia level in washout experiment, 24 hours: 0.1 ng/mg
  adventitia tissue to blood ratio: 61±18
  media level: 4.9±1.2 ng/mg tissue
  media level in washout experiment, 24 hours: 0.2 ng FSK/mg
  media tissue to blood ratio: 77±22
  other adjacent tissues level in washout experiment, 24 hours: < 0.1 ng/mg
[2]
  water solubility: less soluble in aqueous solutions
[3]; Stents, PBS, n = 3
  Release Rate Day 1: 3.8 µg/h
  Release Rate Day 2: 3.9 µg/h
  Release Rate Day 3: 1.6 µg/h
  Total: 4.4 mg
[3]; in vitro, compared with in vivo
  in vitro release rate: 0.5 µg/min
[3]
  initial release rate / release rate: slower release rate
Carotid artery [9]; 1 min after stent delivery, p<0.005
  carotid artery flow at 1 min: 15.9 ± 2.6 mL/min
Carotid artery [9]; 60 min after stent delivery, p<0.0001
  carotid artery flow at 60 min: 19.6 ± 4.4 mL/min
